23 compounds from ChEMBL document CHEMBL1909046, “DrugMatrix in vitro pharmacology data” can be followed below.

In experiment [1] the target is Mitogen-activated protein kinase 1 (Homo sapiens, UniProt P28482). The experiment in a line: DRUGMATRIX: Protein Serine/Threonine Kinase, ERK2 enzyme inhibition (substrate: Myelin Basic Protein). Particulars: Not Active = under 50% inhibition at 10 µM. Further details: species or system Escherichia coli.
Experiment [2] has as its target 5-hydroxytryptamine receptor 1B (Rattus norvegicus, UniProt P28564). Format: cell membranes, Wistar, Cerebral cortex, Membrane. Particulars: for Ki: read-out: Ki. On all read-outs here: in other assays of this panel Not Active means under 50% inhibition at 10 µM.
Experiment [3] addresses T1, Alpha-1D adrenergic receptor (Homo sapiens, UniProt P25100).
T1 sequence (P25100 whole entry): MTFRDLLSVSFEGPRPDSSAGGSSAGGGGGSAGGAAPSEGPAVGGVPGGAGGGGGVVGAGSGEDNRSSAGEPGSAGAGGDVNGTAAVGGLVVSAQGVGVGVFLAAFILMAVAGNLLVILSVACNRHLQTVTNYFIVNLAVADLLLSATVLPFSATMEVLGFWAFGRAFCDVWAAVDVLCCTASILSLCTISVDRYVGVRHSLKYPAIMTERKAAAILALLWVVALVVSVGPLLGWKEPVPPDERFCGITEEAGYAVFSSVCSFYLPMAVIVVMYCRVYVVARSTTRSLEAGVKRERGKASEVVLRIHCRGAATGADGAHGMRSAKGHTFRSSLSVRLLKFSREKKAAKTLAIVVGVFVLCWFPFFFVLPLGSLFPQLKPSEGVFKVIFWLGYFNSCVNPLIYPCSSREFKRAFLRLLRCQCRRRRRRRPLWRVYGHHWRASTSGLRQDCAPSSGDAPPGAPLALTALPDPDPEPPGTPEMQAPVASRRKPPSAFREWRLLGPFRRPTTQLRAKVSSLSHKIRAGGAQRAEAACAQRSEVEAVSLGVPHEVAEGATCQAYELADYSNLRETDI
Format: cell membranes, HEK293, Membrane. Particulars: for Ki: read-out: Ki.

In experiment [4] the target is C-C chemokine receptor type 5 (Homo sapiens, UniProt P51681). In kind it is cell membranes, Membrane. Particulars: hek293. Further: in other assays of this panel Not Active means under 50% inhibition at 10 µM.
Chain of C-C chemokine receptor type 5 (P51681 whole entry): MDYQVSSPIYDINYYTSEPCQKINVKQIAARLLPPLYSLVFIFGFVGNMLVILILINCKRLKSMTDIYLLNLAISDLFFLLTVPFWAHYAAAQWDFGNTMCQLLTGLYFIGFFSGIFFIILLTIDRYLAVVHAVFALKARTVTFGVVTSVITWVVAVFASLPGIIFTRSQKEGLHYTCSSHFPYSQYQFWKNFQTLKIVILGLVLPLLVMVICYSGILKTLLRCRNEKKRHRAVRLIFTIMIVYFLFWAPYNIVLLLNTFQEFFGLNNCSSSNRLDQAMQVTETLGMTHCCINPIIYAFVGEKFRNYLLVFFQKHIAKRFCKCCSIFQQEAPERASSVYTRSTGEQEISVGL
The target in experiment [5] is T2, Polyunsaturated fatty acid lipoxygenase ALOX15 (Oryctolagus cuniculus, UniProt P12530).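 Further: inhibition of 15-lipoxygenase enzyme activity measured with linoleic acid as the substrate; in other assays of this panel Not Active means under 50% inhibition at 10 µM.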
T2 sequence (P12530 whole entry): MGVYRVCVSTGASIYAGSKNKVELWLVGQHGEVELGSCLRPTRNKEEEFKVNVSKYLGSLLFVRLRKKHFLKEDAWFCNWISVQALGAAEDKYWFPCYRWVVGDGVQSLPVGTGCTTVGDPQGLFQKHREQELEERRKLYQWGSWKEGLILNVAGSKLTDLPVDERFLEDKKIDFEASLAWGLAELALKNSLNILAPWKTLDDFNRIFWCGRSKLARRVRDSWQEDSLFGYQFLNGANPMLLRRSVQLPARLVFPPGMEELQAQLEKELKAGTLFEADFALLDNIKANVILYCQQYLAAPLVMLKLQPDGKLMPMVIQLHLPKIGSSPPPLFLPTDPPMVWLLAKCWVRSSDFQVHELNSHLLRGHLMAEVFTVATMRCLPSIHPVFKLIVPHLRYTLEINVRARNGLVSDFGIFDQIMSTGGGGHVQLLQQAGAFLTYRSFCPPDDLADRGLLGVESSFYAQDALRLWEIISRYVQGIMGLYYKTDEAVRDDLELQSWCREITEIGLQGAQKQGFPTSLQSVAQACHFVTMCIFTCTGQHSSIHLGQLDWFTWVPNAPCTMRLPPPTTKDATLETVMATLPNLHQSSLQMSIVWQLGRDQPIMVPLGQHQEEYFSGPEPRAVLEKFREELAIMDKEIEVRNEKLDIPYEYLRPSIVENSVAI
As to the kind of experiment: biochemical. Format: tissue-based, Reticulocytes.

The target of experiment [6] is 5-hydroxytryptamine receptor 6 (Homo sapiens, UniProt P50406). In kind it is cell membranes, HeLa, Membrane. The conditions noted are these: for Ki: read-out: Ki.
Chain of 5-hydroxytryptamine receptor 6 (P50406 whole entry): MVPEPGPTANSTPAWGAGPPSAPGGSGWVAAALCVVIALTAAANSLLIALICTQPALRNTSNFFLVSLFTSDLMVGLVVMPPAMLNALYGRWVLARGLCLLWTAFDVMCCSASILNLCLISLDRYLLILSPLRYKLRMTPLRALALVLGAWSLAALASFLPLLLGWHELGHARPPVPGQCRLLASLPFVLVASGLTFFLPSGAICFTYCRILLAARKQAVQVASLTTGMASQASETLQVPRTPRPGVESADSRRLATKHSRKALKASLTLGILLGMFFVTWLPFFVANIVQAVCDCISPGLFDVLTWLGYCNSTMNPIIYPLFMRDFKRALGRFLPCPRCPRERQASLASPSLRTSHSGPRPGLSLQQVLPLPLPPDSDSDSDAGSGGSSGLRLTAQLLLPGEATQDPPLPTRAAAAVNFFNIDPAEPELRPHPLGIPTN
Wherever Ki is given: in other assays of this panel Not Active means under 50% inhibition at 10 µM.

Chain of Mitogen-activated protein kinase 1 (P28482 whole entry): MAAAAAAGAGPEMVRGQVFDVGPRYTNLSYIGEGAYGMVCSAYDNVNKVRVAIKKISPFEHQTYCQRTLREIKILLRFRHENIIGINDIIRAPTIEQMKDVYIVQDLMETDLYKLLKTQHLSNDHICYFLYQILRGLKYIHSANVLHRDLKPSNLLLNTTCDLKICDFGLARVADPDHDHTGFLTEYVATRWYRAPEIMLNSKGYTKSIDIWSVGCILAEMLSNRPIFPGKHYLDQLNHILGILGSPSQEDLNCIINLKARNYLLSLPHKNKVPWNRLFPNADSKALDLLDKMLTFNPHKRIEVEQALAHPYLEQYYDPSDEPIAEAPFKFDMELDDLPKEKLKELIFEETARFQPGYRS
Chain of 5-hydroxytryptamine receptor 1B (P28564 whole entry): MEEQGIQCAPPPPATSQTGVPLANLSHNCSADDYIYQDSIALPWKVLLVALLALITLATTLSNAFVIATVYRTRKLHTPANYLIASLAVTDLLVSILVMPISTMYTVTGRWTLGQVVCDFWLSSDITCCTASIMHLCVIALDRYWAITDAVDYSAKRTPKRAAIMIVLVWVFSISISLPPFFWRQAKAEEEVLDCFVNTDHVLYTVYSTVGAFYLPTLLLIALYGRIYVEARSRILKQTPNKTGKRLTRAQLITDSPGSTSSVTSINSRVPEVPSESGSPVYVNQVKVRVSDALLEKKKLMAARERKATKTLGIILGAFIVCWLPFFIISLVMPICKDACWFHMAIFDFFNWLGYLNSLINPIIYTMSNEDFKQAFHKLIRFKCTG

Usually IC50 stands for the point on the concentration scale where inhibition reaches its midpoint. As a reminder, the Ki is a measure of affinity in units of concentration, obtained from inhibition or displacement. For the compound `Cc1c(C)c2c(c(C)c1O)CCC(C)(CN1CCN(c3cc(N4CCCC4)nc(N4CCCC4)n3)CC1)O2` (stereo not given), the IC50 result is “Not Active” in experiment [1]; “Not Active” in experiment [2]; 26700 nM in experiment [3] (read-out: IC50); “Not Active” in experiment [4]; 5670 nM in experiment [5] (read-out: IC50); “Not Active” in experiment [6] (hela). For the same compound, in experiment [3], the Ki stood at 13100 nM.
As for `COc1ccc(CCN(C)CCCC(C#N)(c2ccc(OC)c(OC)c2)C(C)C)cc1OC` (stereo not given), the IC50 result in experiment [1], in experiment [2], in experiment [3] (hek293), in experiment [4], in experiment [5] (reticulocytes) and in experiment [6] (hela) was “Not Active” in each case.
Turning to `CC(C)Cc1ccc([C@@H](C)C(=O)O)cc1` [(R)-IBUPROPHEN], the IC50 entry in experiment [1], in experiment [2], in experiment [3] (hek293), in experiment [4], in experiment [5] (reticulocytes) and in experiment [6] (hela) was “Not Active” each time.
With `CN(C)CCOC(c1ccccc1)c1ccccc1` [DIPHENHYDRAMINE], the IC50 result in experiment [1], in experiment [2], in experiment [3] (hek293), in experiment [4], in experiment [5] (reticulocytes) and in experiment [6] (hela) was “Not Active” in each case.
For `Clc1ccc(COC(Cn2ccnc2)c2ccc(Cl)cc2Cl)cc1` (stereo not given) [ECONAZOLE], the IC50 result in experiment [1] was “Not Active”; in experiment [2] (read-out: IC50), 22000 nM; in experiment [3] (read-out: IC50), 8900 nM; in experiment [4] it was “Not Active”; in experiment [5] (reticulocytes), “Not Active”; in experiment [6] (read-out: IC50), 10900 nM. In addition, the Ki in experiment [2] is 10000 nM; in experiment [3], 4370 nM; in experiment [6], 5060 nM.
Turning to `CCN(CC)CCOc1ccc(/C(=C(/Cl)c2ccccc2)c2ccccc2)cc1` [ENCLOMIPHENE], the IC50 result is “Not Active” in experiment [1]; “Not Active” in experiment [2]; “Not Active” in experiment [3] (hek293); “Not Active” in experiment [4]; “Not Active” in experiment [5] (reticulocytes); 1520 nM in experiment [6] (read-out: IC50). In addition, the Ki in experiment [6] was 707 nM.
With `Fc1ccc(C(c2ccc(F)cc2)N2CCN(C/C=C/c3ccccc3)CC2)cc1` [FLUNARIZINE], the IC50 entry in experiment [1] was “Not Active”; in experiment [2], “Not Active”; in experiment [3] (read-out: IC50), 1080 nM; in experiment [4], “Not Active”; in experiment [5] (reticulocytes), “Not Active”; in experiment [6] (hela), “Not Active”. In experiment [3], the Ki worked out at 533 nM.
With `CNCCC(Oc1ccc(C(F)(F)F)cc1)c1ccccc1` (stereo not given) [FLUOXETINE], the IC50 result in experiment [1], in experiment [2], in experiment [3] (hek293), in experiment [4] and in experiment [5] (reticulocytes) was “Not Active” in each case.
Turning to `Cc1ccc(NC(=O)c2ccc(CN3CCN(C)CC3)cc2)cc1Nc1nccc(-c2cccnc2)n1` [IMATINIB], the IC50 entry in experiment [2], in experiment [3] (hek293), in experiment [4], in experiment [5] (reticulocytes) and in experiment [6] (hela) was “Not Active” in each case.
Regarding `CC(C)Oc1ccc2c(=O)c(-c3ccccc3)coc2c1` [IPRIFLAVONE], the IC50 result in experiment [1], in experiment [2], in experiment [3] (hek293), in experiment [4], in experiment [5] (reticulocytes) and in experiment [6] (hela) was “Not Active” in each case.
For `CC(C)NCC(O)c1ccc(O)c(O)c1` (stereo not given) [ISOPROTERENOL], the IC50 result is “Not Active” in experiment [1]; “Not Active” in experiment [2]; “Not Active” in experiment [3] (hek293); “Not Active” in experiment [4]; 1770 nM in experiment [5] (read-out: IC50); “Not Active” in experiment [6] (hela).
On to `CNC1(c2ccccc2Cl)CCCCC1=O` (stereo not given) [KETAMINE], for which the IC50 result in experiment [1], in experiment [2], in experiment [3] (hek293), in experiment [4], in experiment [5] (reticulocytes) and in experiment [6] (hela) was “Not Active” each time.
For `N#Cc1ccc(C(c2ccc(C#N)cc2)n2cncn2)cc1` [LETROZOLE], the IC50 entry in experiment [1], in experiment [2], in experiment [3] (hek293), in experiment [4], in experiment [5] (reticulocytes) and in experiment [6] (hela) was “Not Active” throughout.
Take `CCN1CCC[C@H]1CNC(=O)c1cc(S(N)(=O)=O)ccc1OC` [LEVOSULPIRIDE]: the IC50 result in experiment [1], in experiment [2], in experiment [3] (hek293), in experiment [4], in experiment [5] (reticulocytes) and in experiment [6] (hela) was “Not Active” in each case.
Regarding `CCN(CC)CC(=O)Nc1c(C)cccc1C` [LIDOCAINE], the IC50 entry in experiment [1], in experiment [2], in experiment [3] (hek293), in experiment [4], in experiment [5] (reticulocytes) and in experiment [6] (hela) was “Not Active” each time.
For the compound `O=C1Nc2ccc(Cl)cc2C(c2ccccc2Cl)=NC1O` (stereo not given) [LORAZEPAM], the 50% inhibitory concentration (IC50) entry in experiment [1], in experiment [2], in experiment [3] (hek293), in experiment [4], in experiment [5] (reticulocytes) and in experiment [6] (hela) was “Not Active” throughout.
Regarding `CO[C@@H]1[C@@H](OC)[C@H](C)[C@@](O)(CC(=O)O)O[C@H]1[C@H](C)[C@H]1O[C@@]2(CC[C@@](C)([C@H]3CC[C@@](C)([C@@H]4O[C@@H]([C@H]5O[C@](C)(O)[C@H](C)C[C@@H]5C)C[C@@H]4O[C@@H]4C[C@H](OC)[C@@H](OC)[C@H](C)O4)O3)O2)C[C@H](O)[C@H]1C` [MADURAMICIN ACID], the IC50 result was “Not Active” in experiment [1]; 2.98 nM in experiment [2] (read-out: IC50); 1130 nM in experiment [3] (read-out: IC50); “Not Active” in experiment [4]; “Not Active” in experiment [5] (reticulocytes); 1.7 nM in experiment [6] (read-out: IC50). The Ki is 1.35 nM in experiment [2], 554 nM in experiment [3] and 0.789 nM in experiment [6].
On to `COc1c2occc2cc2ccc(=O)oc12` [METHOXSALEN], for which the IC50 entry in experiment [1], in experiment [2], in experiment [3] (hek293), in experiment [4], in experiment [5] (reticulocytes) and in experiment [6] (hela) was “Not Active” throughout.
Take `C[C@H]1C[C@@H]2[C@H]([C@@H](O)C[C@@]3(C)[C@H]2CC[C@]3(O)C(=O)CO)[C@@]2(C)C=CC(=O)C=C12` [METHYLPREDNISOLONE]: the IC50 result in experiment [1], in experiment [2], in experiment [3] (hek293), in experiment [4], in experiment [5] (reticulocytes) and in experiment [6] (hela) was “Not Active” in each case.
As to `Cc1cccc(C)c1OCC(C)N` (stereo not given) [MEXILETINE], the IC50 result in experiment [1], in experiment [2], in experiment [3] (hek293), in experiment [4], in experiment [5] (reticulocytes) and in experiment [6] (hela) was “Not Active” throughout.
Take `Nc1cc(N2CCCCC2)nc(N)[n+]1[O-]` [MINOXIDIL]: the IC50 entry in experiment [1], in experiment [2], in experiment [3] (hek293), in experiment [4], in experiment [5] (reticulocytes) and in experiment [6] (hela) was “Not Active” each time.
For the compound `CO[C@H]1/C=C/O[C@@]2(C)Oc3c(C)c(O)c4c(O)c(c(/C=N/N5CCN(C6CCCC6)CC5)c(O)c4c3C2=O)NC(=O)/C(C)=C\C=C\[C@H](C)[C@H](O)[C@@H](C)[C@@H](O)[C@@H](C)[C@H](OC(C)=O)[C@@H]1C` [RIFAPENTINE], the IC50 entry in experiment [1], in experiment [2], in experiment [3] (hek293), in experiment [4], in experiment [5] (reticulocytes) and in experiment [6] (hela) was “Not Active” each time.
Take `CCCCOc1cc(CC2CNC(=O)N2)ccc1OC` (stereo not given) [RO-201724]: the IC50 entry in experiment [1], in experiment [2], in experiment [3] (hek293), in experiment [4], in experiment [5] (reticulocytes) and in experiment [6] (hela) was “Not Active” in each case.
